# Experimental data reported in US8691864B2, “Agents useful for reducing amyloid precursor protein and treating dementia and methods of use thereof” (priority 2000, dated 2014).
# Columns and labels:
# [1] = system: SK-N-SH cells; assay: LDH assay / cell number and viability, SK-N-SH cells; assay type: cell-based, human
# Excerpt: Measurement of released lactate dehydrogenase (LDH) in the conditioned medium was undertaken as a marker of cell viability and integrity, as described previously (Lahiri et al., 1997 and 1998).
# This was not associated with cellular dysfunction, as determined by measurement of LDH levels versus untreated controls (FIG. 4C).
# [2] = system: βAPP; assay: βAPP protein levels in U373 MG astrocytoma cells, western blot; assay type: cell-based; conditions: FIGS. 6A-C, alone or with PD98059 or LY294002
# Method: SK-N-SH neuroblastoma cells were cultured on 60 mm dishes at a concentration of 3×10^6 cells, and SH-SY-5Y neuroblastoma and U373 astrocytorna cell lines were plated in 100 mm dishes at a concentration of 3×10^5 cells. The cells were allowed to grow in complete medium ([…], 2 mM glutamine in DMEM) for 3 to 4 days until they reached 70% confluence. To start the experiment, spent medium was removed and replaced with fresh medium (SKNSH—4 ml of DMEM+0.5% FBS; U373—5 ml of DMEM+2.5% FBS) containing 0, 5, or 50 μM phenserine. The cells were incubated at 37° C., 5% CO2 for the specific times indicated. Different media and sera were purchased from Life Technologies (Gaithersberg, Md.). […]
# At each time point, the spent medium was collected and stored at −70° C. for later analysis of secretory βAPP levels. The cells were washed twice with PBS, pH 7.4 and incubated on ice for 15 min for lysis with 100 μL of lysis buffer (20 mM HEPES, 2 mM EGTA, 50 mM (β-glycophosphate, 1 mM sodium orthovanadate, 1% Triton X-100, 10% glycerol) containing appropriate protease inhibitors (2 mM PMSF, 100 μg/mL aprotinin, 25 μM leupeptin and 20 μg/mL soybean trypsin inhibitor). Each lysate was microcentrifuged for 15 min at 14 000 rpm. Protein levels of the supernatant were analyzed by the Bradford protein assay (BioRad, Melville, N.Y.). […]
# [3] = in vivo toxicity, i.p. administration to rodents
# Method: This persisted for an hour and is related to central cholinergic overdrive. […] Animals were incapacitated at 20 mg/kg (N=3 per dose group), and 2 were killed when moribund.
# [4] = system: Aβ1-42; assay: Aβ1-42 levels in cerebral cortex of transgenic mice, ELISA; assay type: in vivo; conditions: formic acid extraction, 3 weeks daily
# Method: Greater reductions could be achieved, but, as previously reported, doses of >5 mg/kg produce cholinergic side effects for the (−)-enantiomer but not for the (+)-enantiomer.
# Samples of cerebral cortex from the transgenic mice then were analyzed for β amyloid peptide (Aβ) levels. Specifically, Aβ1-40 and Aβ1-42 levels, following formic acid extraction, were determined by ELISA assay (Suzuki et al., 1994).
compound,measurement,setting,value
CN1CC[C@@]2(C)c3cc(OC(=O)Nc4ccccc4)ccc3N(C)[C@@H]12 [(−)-phenserine],LDH levels in media,"[1]; SK-N-SH, 50 μM, up to 16 hours",no significant difference between treated and untreated levels
same,toxicity as assessed by an LDH assay,"[1]; SK-N-SH, 0.5, 5 or 50 μM, 16 hours",no significant toxicity
same,"reduction of βAPP protein levels, densitometric quantification",[2],> 25%
same,clinical signs,[3]; 5 mg/kg,a fine tremor is observed
same,clinical signs,[3]; 7.5 mg/kg,Tremor together with symptoms of peripheral cholinergic overdrive
same,duration of tremor and peripheral cholinergic symptoms,[3]; 7.5 mg/kg,~3 h
same,clinical signs,[3]; 20 mg/kg,incapacitated
same,reduction of Aβ1-42 levels,[4],53%
